Here are results for ten compounds from patent publication US10471118B2, “Retinylamine derivitives for treatment of ocular disorders” (CASE WESTERN RESERVE UNIVERSITY, priority 2014, dated 2019).

The subject of one data set is Abca4^−/−Rdh8^−/− mice. Put plainly: Light-induced retinal degeneration in Abca4-/-Rdh8-/- mice (OCT, ERG, histology), Example 1. To be noted: 0.875 μmol per mouse oral gavage 16 h before 10,000 lux 1 h, OCT after 3 days in dark. Type of data set: in vivo, mouse. The protocol: Abca4^−/−Rdh8^−/− double knockout mice were housed in the animal facility at the School of Medicine, Case Western Reserve University, where they were maintained under either complete darkness or a 12-h light (−10 1×) and 12-h dark cycle. All retinylamine tested were dissolved or suspended in 100 μl of vegetable oil with less than 10% (v/v) DMSO and were administered by oral gavage with a 22-gauge feeding needle. Experimental manipulations in the dark were done under dim red light transmitted through a Kodak No. 1 safelight filter (transmittance >560 nm). All animal procedures and experiments were approved by the Case Western Reserve University Animal Care Committees and conformed to recommendations of the American Veterinary Medical Association Panel on Euthanasia and the Association of Research for Vision and Ophthalmology.
After dark adaptation for 48 h, one or two Abca4^−/−Rdh8^−/− mice with pupils dilated by 1% tropicamide were exposed to fluorescent light (10,000 1×; 150-W spiral lamp, Commercial Electric) for 60 min in a white plastic bucket (Papersmith) with food and water and then kept in the dark. Histological and biochemical experiments were performed 3 days after exposure.
Ultra-high resolution spectral-domain OCT (SD-OCT; Bioptigen) and Heidelberg Retinal Angiograph II SLO (Heidelberg Engineering) were used for in vivo imaging of mouse retinas. Mice were anesthetized by intraperitoneal injection of a cocktail (20 μl g-1 body weight) containing ketamine (6 mg ml-1) and xylazine (0.44 mg ml-1) in 10 mM sodium phosphate, pH 7.2, and 100 mM NaCl. Pupils were dilated with 1% tropicamide. Four pictures acquired in the B-scan mode were used to construct each final averaged SD-OCT image.
All ERG procedures were performed by published methods. For single-flash recording, the duration of white-light flash stimuli (from 20 μs to 1 ms) was adjusted to provide a range of illumination intensities (from −3.7 to 1.6 log cd s m-2). Three to five recordings were made at sufficient intervals between flash stimuli (from 3 s to 1 min) to allow recovery from any photobleaching effects.
Mouse eyes were fixed for 24 h by rocking in a fixation solution (2 ml/eye) containing 4% paraformaldehyde and 1% glutaraldehyde in PBS. The tissue was processed through a series of ethanols, xylenes, and paraffins in a Tissue-Tek VIP automatic processor (Sakura, Torrance, Calif., USA), and 5-μm sections were cut using a Microm HM355 paraffin microtome (Thermo Fisher Scientific, Waltham, Mass., USA) and stained with hematoxylin and eosin (H&E) stain. Images of stained sections were captured by a Leica CTR6000 microscope attached to a CCD camera (Micropublisher 5.0 RTV, Qimaging Surray BC, Canada).
The effectiveness of the retinylamine derivatives on preventing light-induced retinal degeneration was tested in four-week old Abca4^−/−Rdh8^−/− mice according to the experimental scheme depicted in FIG. 1. After the mice were dark-adapted for 48 h, the drugs were gavaged at a dose 0.875 μmol/per mouse, which was selected based on the half protection dose for retinylamine after a dosing experiment, FIG. 2. Retinylamine was tested as a control at the same dose. […] Retinal integrity was assessed using optical coherence tomography (OCT). […] The mice without any treatment had photoreceptor cells completely destroyed after light illumination, and were used as a negative control. The retinal integrity was determined based on the thickness of outer nuclear layer (ONL) of the retinas measured from the OCT images. Reduced ONL thickness signifies the decreasing number of photoreceptors and retinal degeneration.

Data set [1] can be described thus: Biodistribution of N-retinylamides and retinylamine derivatives in liver and eye after oral gavage. Type of data set: in vivo, mouse. To be noted: for original drug detected in the eye: 2 h and 16 h; for metabolism in the eye: conclusion from biodistribution at 2 h and 16 h. The protocol:
Female C57BL mice (4-week-old) were randomly divided into seven groups, six treated groups and one control group. Free Ret-NH2 (3.5 μmol per mouse, dissolved in DMSO and dispersed in vegetable oil) or retinylamine derivatives (Ret-Gly, Ret-L-Val-Gly, Ret-L-Phe, Ret-L-Leu, Ret-L-Val, 3.5 μmol per mouse, dissolved in DMSO and dispersed in vegetable oil) was administered by gastric gavage, control group was only gavaged vegetable oil. Then at each predetermined time point (2 and 16 h after drug administration), 3 mice were sacrificed. The liver and eye balls were collected to determine tissue N-retinylamide content for pharmacokinetic analysis. A portion of the liver tissue (0.3-0.5 g) was weighed, homogenized in 2 mL 1:1 ethanol:PBS solution and the eye balls were similarly processed (eye balls were combined for 3 mice). N-Retinylamides were extracted in 4 mL hexane, concentrated, and reconstituted to a 300 μL volume for liver (200 μL for eye). Normal-phase HPLC (Agilent-Zorbax SIL; 5 μm; 4.5×250 mm; flow rate of 1.4 mL/min; 80:20 hexane:ethyl acetate (v:v); detection at 325 nm) was utilized to determine N-retinylamide concentration in these tissues.
Female C57BL mice (4-week-old) were randomly divided into seven groups, six treated groups and one control group. Free Ret-NH2 (3.5 μmol per mouse, dissolved in DMSO and dispersed in vegetable oil) or retinylamine derivative (Ret-Gly, Ret-L-Val-Gly, Ret-L-Phe, Ret-L-Leu, Ret-L-Val, 3.5 μmol per mouse, dissolved in DMSO and dispersed in vegetable oil) was administered by gastric gavage, control group was only gavaged vegetable oil. Then at each predetermined time point (2 and 16 h after drug administration), 3 mice were sacrificed. The liver and eye balls were collected to determine tissue drug content for pharmacokinetic analysis. A portion of the liver tissue (0.3-0.5 g) was weighed, homogenized in 2 mL 1:1 ethanol:PBS solution and the eye balls were similarly processed. Retinylamine or its derivative was extracted in 4 mL ethyl acetate, concentrated, and reconstituted to a 300 μL volume for liver (200 μL for eye). Reverse-phase HPLC (analytical C18 reverse column; 5 μm; 250 mm×4.6 mm; flow rate of 1.0 mL/min; 60:40 acetonitrile:H2O (v:v) with 0.05% trifluoroacetic acid; detection at 325 nm) was utilized to determine retinylamine or its derivative in these tissues. […]
No N-retinylamides were detected in the eye at 2 h for all treated mice. The concentration of N-retinylamides in the liver of all treated mice increased at 16 h post-treatment. […] The concentrations of the original drugs were also determined in the liver and eye at 2 h and 16 h (FIGS. 7C, D). All tested drugs, including Ret-NH2, were detected in liver and their concentrations decreased from 2 h to 16 h.

The mark [2] stands for this setting: 3.5 μmol per mouse oral, C57BL mice, 16 h.

Entries after “also recorded” stand apart in the source; their conditions may differ.

Take `CC1=C(/C=C/C(C)=C/C=C/C(C)=C/CNC(=O)[C@H](C)N)C(C)(C)CCC1` [3a, (S)-2-amino-N-((2E,4E,6E,8E)-3,7-dimethyl-9-(2,6,6-trimethylcyclohex-1-en-1-yl)nona-2,4,6,8-tetraen-1-yl)propanamide]: the “protection against light-induced retinal degeneration (ONL thickness from OCT)” value (shortened to “protection”) in the data set with Abca4^−/−Rdh8^−/− mice is on record as “little protecting efficacy”.

As for `CC1=C(/C=C/C(C)=C/C=C/C(C)=C/CNC(=O)[C@H](N)C(C)C)C(C)(C)CCC1` [3g, (R)-2-amino-N-((2E,4E,6E,8E)-3,7-dimethyl-9-(2,6,6-trimethylcyclohex-1-en-1-yl)nona-2,4,6,8-tetraen-1-yl)-3-methylbutanamide], the “protection” value with Abca4^−/−Rdh8^−/− mice is “little protecting efficacy”.

Take `CC1=C(/C=C/C(C)=C/C=C/C(C)=C/CNC(=O)CNC(=O)[C@@H](N)C(C)C)C(C)(C)CCC1` [RGV, (S)-2-amino-N-(2-(((2E,4E,6E,8E)-3,7-dimethyl-9-(2,6,6-trimethylcyclohex-1-en-1-yl)nona-2,4,6,8-tetraen-1-yl)amino)-2-oxoethyl)-3-methylbutanamide]: the “protection” value with Abca4^−/−Rdh8^−/− mice was “significant improvement on preventing light-induced retinopathy over retinyl amine”.

Consider `CC1=C(/C=C/C(C)=C/C=C/C(C)=C/CNC(=O)CN)C(C)(C)CCC1` [RG, 2-amino-N-((2E,4E,6E,8E)-3,7-dimethyl-9-(2,6,6-trimethylcyclohex-1-en-1-yl)nona-2,4,6,8-tetraen-1-yl)acetamide], for which the “protection” value was “significant improvement on preventing light-induced retinopathy over retinyl amine; also recorded: relatively high protecting effect” with Abca4^−/−Rdh8^−/− mice; “significantly better protection than Ret-NH2 and other derivatives” in the data set on Abca4^−/−Rdh8^−/− mice (listed as glycyl). In data set [1] (3.5 μmol per mouse oral), the “original drug detected in the eye” value was “detected in eyes at both 2 h and 16 h at a relatively high concentration”. Moreover, in data set [1] (setting [2]), the “liver concentration of N-retinylamides” value was “lower liver concentration of N-retinylamides than RF and RL”.

`CC1=C(/C=C/C(C)=C/C=C/C(C)=C/CNC(=O)CCN)C(C)(C)CCC1` [3h, 3-amino-N-((2E,4E,6E,8E)-3,7-dimethyl-9-(2,6,6-trimethylcyclohex-1-en-1-yl)nona-2,4,6,8-tetraen-1-yl)propanamide]: the “protection” value in the data set on Abca4^−/−Rdh8^−/− mice was “little protecting efficacy”.

For `CC1=C(/C=C/C(C)=C/C=C/C(C)=C/CNC(=O)[C@@H](N)CC(C)C)C(C)(C)CCC1` [RL, (S)-2-amino-N-((2E,4E,6E,8E)-3,7-dimethyl-9-(2,6,6-trimethylcyclohex-1-en-1-yl)nona-2,4,6,8-tetraen-1-yl)-4-methylpentanamide], the “protection” value in the data set on Abca4^−/−Rdh8^−/− mice is “low protecting effect”; in the data set with Abca4^−/−Rdh8^−/− mice (listed as L-leucyl), “little protecting efficacy”. Also, the “original drug detected in the eye” value in data set [1] (3.5 μmol per mouse oral) was “only detected at 2 h”. The “metabolism in the eye” value in data set [1] was “rapidly metabolized into inactive N-retinylamides in the eye”.

On to `CC[C@H](C)[C@H](N)C(=O)NC/C=C(C)/C=C/C=C(C)/C=C/C1=C(C)CCCC1(C)C` [3c, (2S,3S)-2-amino-N-((2E,4E,6E,8E)-3,7-dimethyl-9-(2,6,6-trimethylcyclohex-1-en-1-yl)nona-2,4,6,8-tetraen-1-yl)-3-methylpentanamide], for which the “protection” value in the data set on Abca4^−/−Rdh8^−/− mice is listed as “little protecting efficacy”.

`CC1=C(/C=C/C(C)=C/C=C/C(C)=C/CNC(=O)[C@@H](N)C(C)C)C(C)(C)CCC1` [RV, (S)-2-amino-N-((2E,4E,6E,8E)-3,7-dimethyl-9-(2,6,6-trimethylcyclohex-1-en-1-yl)nona-2,4,6,8-tetraen-1-yl)-3-methylbutanamide]: the “protection” value with Abca4^−/−Rdh8^−/− mice is “relatively high protecting effect”. Moreover, the “original drug detected in the eye” value in data set [1] (3.5 μmol per mouse oral) was “detected in eyes at both 2 h and 16 h at a relatively high concentration”. For the same compound, in data set [1] (setting [2]), the “N-retinylamides in the eye” value is listed as “no detectable N-retinylamides in the eye”; the “liver concentration of N-retinylamides” value was “lower liver concentration of N-retinylamides than RF and RL”. Further, the “metabolism in the eye” value in data set [1] is “stable against metabolism and had prolonged presence in the eye as intact drug molecules”.

In the case of `CC1=C(/C=C/C(C)=C/C=C/C(C)=C/CNC(=O)[C@@H](C)N)C(C)(C)CCC1` [3f, (R)-2-amino-N-((2E,4E,6E,8E)-3,7-dimethyl-9-(2,6,6-trimethylcyclohex-1-en-1-yl)nona-2,4,6,8-tetraen-1-yl)propanamide], the “protection” value in the data set on Abca4^−/−Rdh8^−/− mice is given as “little protecting efficacy”.

For `CC1=C(/C=C/C(C)=C/C=C/C(C)=C/CNC(=O)[C@@H]2CCCN2)C(C)(C)CCC1` [3i, (S)—N-((2E,4E,6E,8E)-3,7-dimethyl-9-(2,6,6-trimethylcyclohex-1-en-1-yl)nona-2,4,6,8-tetraen-1-yl)pyrrolidine-2-carboxamide], in the data set with Abca4^−/−Rdh8^−/− mice, the “protection” value is given as “little protecting efficacy”.
